The values that follow come from patent publication US7056908B2, “Pharmaceutical compositions and methods for preventing skin tumor formation and causing regression of existing tumors” (priority 1991, dated 2006).

What all share (assay type): cell-based, mouse
The subject of one assay is primary keratinocytes. Description: Epidermal transglutaminase activity in primary keratinocytes. The settings on record: 9 hours, 1.4 mM Ca2+ medium; for increase in epidermal transglutaminase activity: 8 day old cultures. The protocol: Enzyme Assays. Activity of epidermal transglutaminase was determined by measuring cross-linking of ^3H-putrescine to dimethylcasein (20). Cell lysates were incubated at […] for 10 minutes to inactivate tissue transglutaminase. Ornithine decarboxylase activity of cell lysates was determined by quantifying release of ^14CO2 from ^14C-ornithine (Sako, T. et al, “Partial parallelism and partial blockade by bryostatin 1 of effects of phorbol ester tumor promoters on primary mouse epidermal cells,” Cancer Res., 47: 5445–5450, 1987).
Epidermal transglutaminase activity is elevated in terminally differentiating keratinocytes both in vivo and in vitro. […] Control cultures (0 nM dose) were treated with 0.1% DMSO. Each point is the average of duplicate dishes with the range indicated by error bars.

For assay [1], the system named is SP-1 cells. Description: Epidermal transglutaminase activity in neoplastic keratinocytes. The settings on record: 24 hours.
The test system of assay [2] is SP-1 cells. Description: Cornified envelope formation in SP-1 cells. The following applies: 1.4 mM Ca2+ medium, 3 days. As for the experimental part:
(§1) Cornified Envelope Quantitation. Keratinocytes were analyzed for cornified envelope formation as described (Nagae, S. et al, “Effect of retinoic acid on cornified envelope formation: difference between spontaneous envelope formation in vivo or in vitro and expression of envelope competence,” J. Invest., Dermatol., 89: 51–58, 1987), with minor modifications. Floating cells were harvested by collecting culture medium from each 60 mm dish and combining with two washes using phosphate-buffered saline without Ca^2+ and Ms^+2 (PBS). Cells were pelleted for 5 minutes at 1000 rpm in a benchtop clinical centrifuge and resuspended in 100 μl of lysis buffer (2% sodium dodecyl sulfate (SDS) and 20 mM dithiothreitol in PBS). Attached cells were harvested in 250 μl lysis buffer, combined with the preparation of floating cells, and incubated at 95° for 10 minutes. The non-solubilized, intact cornified envelopes, characteristic of terminally differentiated keratinocytes, were counted using a hemocytometer (Nagae, S. et al, “Effect of retinoic acid on cornified envelope formation: difference between spontaneous envelope formation in vivo or in vitro and expression of envelope competence,” J. Invest. Dermatol., 89: 51–58, 1987).
(§2) Cornified envelope formation was also determined in cultures of staurosporine-treated neoplastic cells. […]

The subject of assay [3] is SP-1 cells. Kind of assay: Morphological differentiation of SP-1 neoplastic keratinocyte cell line. The following applies: for morphological changes: 24 hours, 10 nM staurosporine or 160 nM TPA.
Assay [4] relates to 308 cells. Description: Cornified envelope formation in 308 cells. The following applies: 1.4 mM Ca2+ medium, 3 days. As for the experimental part: as §1, §2
Assay [5] deals with 308 cells. Kind of assay: Morphological differentiation of 308 neoplastic keratinocyte cell line. The following applies: for morphological changes: 24 hours, 10 nM staurosporine or 160 nM TPA.
A further assay relates to c-fos mRNA. Kind of assay: c-fos mRNA Northern blot in primary keratinocytes. The following applies: for time of maximum c-fos mRNA expression: 8 hour treatment, medium with 0.5% serum. As for the experimental part:
RNA Isolation and Northern Blot Analysis. RNA was isolated by ultracentrifugation of guanidine isothiocyanate lysates through a 5.7M cesium chloride gradient (Chirgwin, J. M. et al, “Isolation of biologically active ribonucleic acid from sources enriched in ribonuclease,” Biochemistry, 18: 5294–5299, 1979). 20 μg of total RNA was loaded per lane and electrophoresed through a 1% agarose gel containing 0.66 M formaldehyde (Davis, L. G. et al, “Basic Methods in Molecular Biology,” New York: Elsevier, 1986). RNA was blotted to reinforced nitrocellulose membrane (BA-S NC; Schleicher & Schuell, Keene, N.H.) and baked at 80° C. in a vacuum oven for 2 hours. Filter were pre-hybridized at 42° overnight in buffer containing 50% formamide as previously described (Yuspa, S. H. et al, “Expression of murine epidermal differentiation markers is tightly regulated by restricted extracellular calcium concentrations in vitro,” J. Cell Biol., 109: 1207–1217, 1989); approximately 20×10^6 dpm of probe was added and hybridization carried out overnight. The final wash performed at 65° using 0.2×SSC with 0.1% SDS. Filters were exposed to Kodak X-Omat AR film at −70° with intensifying screens. Mouse c-fos transcript was detected using a 1.2 kb Bg1 II to Sal I fragment from the Finkel-Biskis-Jinkins murine sarcoma virus sequence (Curran, T. et al, “Structure of the FBJ murine osteosarcoma virus genome: molecular cloning of the associated helper virus and the cellular homologue of the v-fos gene from mouse and human cells,” Mol. Cell. Biol., 3: 914–921, 1983). Following autoradiography, remaining probe was removed by washing in 1% glycerol in deionized water at 80° for 2 minutes (Davis, L. G. et al, “Basic Methods in Molecular Biology,” New York: Elsevier, 1986) and the filter was re-hybridized to a full-length rat glyceraldehyde phosphate dehydrogenase (GAPDH) cDNA in a pUC18 vector (Fort, P. et al, “Various rat adult tissues express only one major mRNA species from the glyceraldehydes-3-phosphate-dehydrogenase multigenic family,” Nucleic. Acids. Res., 13: 1431–1442, 1985). […]

[6] abbreviates: doses ranging from 1.6 nM to 16 uM.
The mark [7] stands for this setting: morphological response to staurosporine.

Consider `CCCCCCCCCCCCCC(=O)O[C@@H]1[C@@H](C)[C@@]2(O)[C@@H](C=C(CO)C[C@]3(O)C(=O)C(C)=C[C@@H]23)[C@H]2C(C)(C)[C@]12OC(C)=O` [TPA, 12-0-tetradecanoylphorbol-13-acetate, reference compound], for which the “increase in epidermal transglutaminase activity” value in the assay with primary keratinocytes (100 and 1000 nM) came to 5 fold. Moreover, the “effect on epidermal transglutaminase activity” value in the assay with SP-1 cells [1] (any dose ranging from 10 pM to 10 μM) was “no detectable effect”. In addition, the cornified envelope formation entry with SP-1 cells [2] (160 nM TPA) and in the assay with 308 cells [4] (160 nM TPA) was “not induced” in each case. For the same compound, the morphological changes entry with SP-1 cells [3] and in the assay on 308 cells [5] was “does not appreciably alter the appearance” in each case. In addition, the inducing morphological differentiation result with SP-1 cells [3] (setting [6]) and in the assay on 308 cells [5] (setting [6]) was “ineffective” throughout. Also, in the assay with c-fos mRNA, the “time of maximum c-fos mRNA expression” value turned out to be 6 h.

Consider `CN[C@@H]1C[C@H]2O[C@@](C)([C@@H]1OC)n1c3ccccc3c3c4c(c5c6ccccc6n2c5c31)C(=O)NC4` [staurosporine], for which, in the assay with primary keratinocytes (10 nM), the “increase in epidermal transglutaminase activity” value is listed as 4 fold. Besides, the “dose to which induction of transglutaminase activity is restricted” value with primary keratinocytes is 10 nM. The “maximum induction of epidermal transglutaminase activity” value in the assay with SP-1 cells [1] (100 nM, 5 day old SP-1 cells) was found to be 50 fold. In addition, the “induction of cornified envelopes” value with SP-1 cells [2] (10 nM staurosporine) is listed as 10 fold; in the assay on 308 cells [4] (10 nM staurosporine), 60 fold. In addition, the morphological changes entry with SP-1 cells [3] and in the assay on 308 cells [5] was “morphological changes similar to those seen in primary cells” in each case. The “treatment time required for a maximal response” value in the assay with SP-1 cells [3] (setting [7]) and with 308 cells [5] (setting [7]) was “at least 48 hours” in each case. In addition, in the assay with c-fos mRNA, the “time of maximum c-fos mRNA expression” value stood at 8 h. In the assay on c-fos mRNA (staurosporine added just before TPA), the “c-fos mRNA expression on combined exposure with TPA” value is “higher expression of c-fos MRNA than TPA alone”.
